Assay results as given in patent US6500934B1, “Bivalent agonists for G-protein coupled receptors” (priority 1996, dated 2002).

Experiments:
α-MSH receptor [1] = assay: Frog melanocyte assay, pigment dispersion (agonist mode) in wild type melanophores; assay type: cell-based, Xenopus laevis; conditions: for EC50: FIG. 4; for pigment dispersion (result in words): α-MSH-ANT dimer: at higher concentrations (FIG. 6)
Description: Frog Melanocyte Assay. Xenopus laevis melanophores were maintained in culture as described by M. Engel et al., Biochemistry 30, 3161-3169 (1991); C. A. Slate et al., Int. J. Peptide Protein Res. 45, 290-298 (1995); and C. Plank et al., J. Biol. Chem. 269, 12918-12924 (1994). Transient expression of bombesin receptor plasmid DNA (pJG3.6BR) in melanophores was achieved by electroporation (C. A. Slate et al., Int. J. Peptide Protein Res. 45, 290-298 (1995)). Melanophores were plated (15,000 per well) on 96 well tissue culture plates (Falcon), and time and dose-response curves were obtained by microtiter plate assays (R. Duncan et al., Clin. Pharmacokinet. 27, 290-306 (1994); M. Engel et al., Biochemistry 30, 3161-3169 (1991); C. A. Slate et al., Int. J. Peptide Protein Res. 45, 290-298 (1995); C. Plank et al., J. Biol. Chem. 269, 12918-12924 (1994); and P. M. Conn et al., Endocrinology 111, 335-337 (1982)). Prior to addition of monomers or dimers, cells were washed and then incubated for one hour with 0.7× L15 media supplemented with 1 nM melatonin. […] Monomers or dimers were added to the microtiter wells in 20 μl aliquots at 10 times their final concentration. For IC50 curves, the media also was supplemented with 5 nM α-MSH.
(§1) Phototransmission was measured at 620 nm using a 340 ATTC microtiter plate reader (SLT Lab Instruments). Transmission readings were taken 1 hour following the addition of melatonin (Ti), and monomers or dimers were added immediately. Additional readings (Tf) were made at various time points (5-60 min). Data was curve fitted by nonlinear regression with y=1−(Tf/Ti). The final data was normalized and expressed as a percentage of maximal pigment dispersion (ymax).
For this study, a rapid, functional assay for G-protein-coupled receptors in frog melanophore cells (C. K. Jayawickreme et al., J. Biol. Chem. 269, 29846-29854 (1994); M. N. Potenza et al., Anal. Biochem. 206, 315-322 (1992); G. F. Graminski et al., J. Biol. Chem. 268, 5957-5964 (1993); S. Karne et al., J. Biol. Chem. 268, 19126-19133 (1993); and C. K. Jayawickreme et al., Proc. Natl. Acad. Sci. USA 91, 1614-1618 (1994)) was used. In frog melanocyte cells, ligands like α-MSH that mediate increases in cellular cyclic AMP levels, or like endothelin 3 that stimulate PI metabolism (S. Karne et al., J. Biol. Chem. 268, 19126-19133 (1993)), cause pigment dispersion and cell darkening, whereas inhibitors of cyclic AMP synthesis, like melatonin, cause pigment aggregation and cell lightening. In this study, the effect of monomeric and dimeric peptides on pigment dispersion was determined.
Wild type melanophores were used for assays involving α-MSH and α-MSH-ANT monomers and dimers. Melanophores that were transfected with a plasmid that contained the bombesin receptor coding region were used for assays involving bombesin monomer and dimer (G. F. Graminski et al., J. Biol. Chem. 268, 5957-5964 (1993); and C. K. Jayawickreme et al., Proc. Natl. Acad. Sci. USA 91, 1614-1618 (1994)).

α-MSH receptor [2] = assay: Frog melanocyte assay, inhibition of α-MSH (5 nM) mediated pigment dispersion in wild type melanophores; assay type: cell-based, Xenopus laevis; conditions: 5 nM α-MSH, t=30 min, FIG. 5
Description: Frog Melanocyte Assay. Xenopus laevis melanophores were maintained in culture as described by M. Engel et al., Biochemistry 30, 3161-3169 (1991); C. A. Slate et al., Int. J. Peptide Protein Res. 45, 290-298 (1995); and C. Plank et al., J. Biol. Chem. 269, 12918-12924 (1994). Transient expression of bombesin receptor plasmid DNA (pJG3.6BR) in melanophores was achieved by electroporation (C. A. Slate et al., Int. J. Peptide Protein Res. 45, 290-298 (1995)). […]
as §1, with “Data was curve fitted by nonlinear regression with y=1−(Tf/Ti).” left out
For this study, a rapid, functional assay for G-protein-coupled receptors in frog melanophore cells (C. K. Jayawickreme et al., J. Biol. Chem. 269, 29846-29854 (1994); M. N. Potenza et al., Anal. Biochem. 206, 315-322 (1992); G. F. Graminski et al., J. Biol. Chem. 268, 5957-5964 (1993); S. Karne et al., J. Biol. Chem. 268, 19126-19133 (1993); and C. K. Jayawickreme et al., Proc. Natl. Acad. Sci. USA 91, 1614-1618 (1994)) was used. […] In this study, the effect of monomeric and dimeric peptides on pigment dispersion was determined. […]

[3] = wild type melanophores, t=30 min

| EC50 (α-MSH receptor [1]; [3]) [nM] | stimulation of dispersion below a concentration of 1 μM (α-MSH receptor [1]; below 1 μM, absence of α-MSH) | IC50 (α-MSH receptor [2]) [nM] | EC50 of dimer lower as compared to the monomer (fold) (α-MSH receptor [1]; [3]) | Substance | pigment dispersion (result in words) (α-MSH receptor [1]; wild type melanophores) |
| --- | --- | --- | --- | --- | --- |
| 372 ± 18 |  |  |  | SYSMEHFRWGKPV-GGG-εAhx-K(20)-βAla [α-MSH monomer] | stimulated dispersion in a time and dose-dependent manner |
|  | did not stimulate dispersion | 120 ± 6 |  | MPdFRdWFKPV-GGGεAhx-K(20)-βAla [α-MSH-ANT monomer, assay monomer lacking cysteine] | No significant dispersion |
| 72.5 ± 5 |  |  | approximately 5 fold | homodimer: ligand domains SYSMEHFRWGKPV-, spacer GGG-εAhx, K(20), two disulfide-linked cysteines end capped at C-termini with β-alanine [α-MSH dimer] | stimulated dispersion in a time and dose-dependent manner |
